In patent publication US5688938A, “Calcium receptor-active molecules” (priority 1995, dated 1997):
Entries after “also recorded” stand apart in the source; their conditions may differ. Blank lines part the entries; values can stand above or below the molecule they belong to.

What was measured:
[1] = system: osteoclast calcium receptor; test: [Ca^2+]i (indo-1) in rat osteoclasts; format: cell-based
[2] = system: parathyroid cell calcium receptor; test: Cl^- current in Xenopus oocytes injected with (bovine) parathyroid cell mRNA; format: cell-based; conditions: fendiline 100 μM
Protocol: (§1) Following incubation, an oocyte was placed into a 100-μl plastic chamber and superfused with MBS at a flow rate of 0.5 ml/min using a peristaltic pump. Test molecules or inorganic polycations were added by rapidly moving the tubing into different buffers. Recording and current passing electrodes were constructed from thin-wall capillary tubing pulled to a resistance of 1-3 Mohms and filled with 3M KCl. […] Currents were recorded directly onto a strip chart recorder.

[3] = serum/blood calcium, PTH, albumin and phosphate in rats, intraperitoneal; format: in vivo, rat; conditions: rat, i.p.
Protocol: Compounds shown to activate the bovine parathyroid cell calcium receptor in vitro were tested for hypocalcemic activity in vivo. […] […] […] Serum total calcium, albumin and phosphate were measured by techniques well known in the art.

[4] = system: Ca^2+ influx in parathyroid cells; test: influx of extracellular Ca^2+ in bovine parathyroid cells; format: cell-based
net positive charge = format: physicochemical; conditions: Table 1; at physiological pH
[5] = molecular target: T1, parathyroid cell calcium receptor (Bos taurus, UniProt P35384); test: cell-based; format: cell-based
T1 sequence (P35384 21-1085 limits assumed): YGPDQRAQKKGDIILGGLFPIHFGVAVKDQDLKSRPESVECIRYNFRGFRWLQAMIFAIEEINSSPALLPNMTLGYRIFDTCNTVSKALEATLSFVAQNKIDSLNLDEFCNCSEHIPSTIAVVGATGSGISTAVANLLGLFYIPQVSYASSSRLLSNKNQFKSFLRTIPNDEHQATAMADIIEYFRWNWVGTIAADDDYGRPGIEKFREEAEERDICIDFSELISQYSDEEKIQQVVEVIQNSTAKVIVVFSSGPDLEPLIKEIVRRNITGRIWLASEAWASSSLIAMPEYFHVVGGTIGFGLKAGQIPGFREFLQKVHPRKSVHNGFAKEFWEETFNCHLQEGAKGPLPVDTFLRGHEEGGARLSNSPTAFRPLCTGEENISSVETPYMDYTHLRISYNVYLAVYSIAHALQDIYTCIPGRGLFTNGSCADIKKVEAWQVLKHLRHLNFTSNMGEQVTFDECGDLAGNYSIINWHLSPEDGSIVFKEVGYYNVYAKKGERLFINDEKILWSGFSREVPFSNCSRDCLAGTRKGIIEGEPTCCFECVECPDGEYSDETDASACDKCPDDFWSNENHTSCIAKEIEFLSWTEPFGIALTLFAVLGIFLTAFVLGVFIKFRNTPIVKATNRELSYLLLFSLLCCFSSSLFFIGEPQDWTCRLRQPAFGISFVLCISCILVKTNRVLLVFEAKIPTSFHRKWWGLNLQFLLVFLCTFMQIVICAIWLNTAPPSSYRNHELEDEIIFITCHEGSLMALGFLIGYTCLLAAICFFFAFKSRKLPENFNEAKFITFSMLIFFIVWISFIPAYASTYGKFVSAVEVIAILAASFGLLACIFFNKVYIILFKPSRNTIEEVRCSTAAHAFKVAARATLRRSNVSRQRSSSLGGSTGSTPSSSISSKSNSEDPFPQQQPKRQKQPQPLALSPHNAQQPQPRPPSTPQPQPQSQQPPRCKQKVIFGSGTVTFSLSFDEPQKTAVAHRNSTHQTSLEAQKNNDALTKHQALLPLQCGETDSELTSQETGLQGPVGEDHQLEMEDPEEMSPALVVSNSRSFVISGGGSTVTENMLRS

calcium receptor = molecular target: T2, calcium receptor (Homo sapiens, UniProt P41180); test: Xenopus oocytes injected with human parathyroid mRNA; format: cell-based
T2 construct: Xenopus oocytes injected with poly(A)+ mRNA from human hyperplastic parathyroid tissue
T2 sequence (P41180 20-1078): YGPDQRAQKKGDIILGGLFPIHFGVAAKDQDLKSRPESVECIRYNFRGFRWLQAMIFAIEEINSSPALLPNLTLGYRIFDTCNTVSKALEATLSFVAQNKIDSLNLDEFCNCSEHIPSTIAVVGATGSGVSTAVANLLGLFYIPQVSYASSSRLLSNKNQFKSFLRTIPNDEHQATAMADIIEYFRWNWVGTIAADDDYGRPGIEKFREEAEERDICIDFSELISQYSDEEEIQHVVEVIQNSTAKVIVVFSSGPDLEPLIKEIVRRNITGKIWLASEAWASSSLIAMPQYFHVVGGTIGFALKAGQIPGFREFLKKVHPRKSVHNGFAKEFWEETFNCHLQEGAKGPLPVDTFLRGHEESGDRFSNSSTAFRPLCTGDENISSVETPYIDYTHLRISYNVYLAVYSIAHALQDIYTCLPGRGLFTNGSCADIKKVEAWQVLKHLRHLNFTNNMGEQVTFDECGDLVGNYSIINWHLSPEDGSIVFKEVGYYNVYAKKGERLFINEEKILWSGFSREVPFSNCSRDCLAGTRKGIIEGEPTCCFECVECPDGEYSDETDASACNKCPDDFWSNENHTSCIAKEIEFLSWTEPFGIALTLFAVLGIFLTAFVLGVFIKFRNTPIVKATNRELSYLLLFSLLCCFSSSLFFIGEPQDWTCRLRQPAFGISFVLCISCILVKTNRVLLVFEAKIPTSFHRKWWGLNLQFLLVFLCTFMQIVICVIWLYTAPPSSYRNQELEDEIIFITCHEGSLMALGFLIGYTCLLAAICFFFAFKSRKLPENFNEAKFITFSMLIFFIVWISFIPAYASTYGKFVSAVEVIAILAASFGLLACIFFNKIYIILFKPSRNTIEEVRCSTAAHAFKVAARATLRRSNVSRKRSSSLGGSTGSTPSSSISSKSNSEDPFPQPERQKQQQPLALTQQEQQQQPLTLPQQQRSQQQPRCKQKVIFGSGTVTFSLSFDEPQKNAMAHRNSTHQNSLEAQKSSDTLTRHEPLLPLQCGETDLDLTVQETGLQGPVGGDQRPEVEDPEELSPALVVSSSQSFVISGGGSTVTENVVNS
Protocol: Oocytes were injected with poly(A)+-enriched mRNA from human parathyroid tissue (hyperplastic glands from a case of secondary HPT).
as §1
Using this screen allows one to test for an action directly on the calcium receptor. Oocytes expressing the calcium receptor also responded to several molecules active on intact parathyroid cells when screened as follows. […] This offers rather compelling evidence showing that these molecules act on the calcium receptor or on some other protein intimately associated with its function.

[6] = molecular target: T3, bovine parathyroid cell calcium receptor (Bos taurus, UniProt P35384); test: Cl^- current in Xenopus oocytes expressing BoPCaR 1; format: cell-based; conditions: 1 mM extracellular Ca^2+
T3 construct: expressed in transfected cells; host or cells: Xenopus laevis oocytes injected with cRNA from BoPCaR 1
T3 sequence (P35384 21-1085 limits assumed): T1 sequence (P35384 21-1085 limits assumed)
Protocol: These responses are mediated by the following series of biochemical events:
Xenopus oocytes were injected with BoPCaR 1, the 5.3 Kb cDNA encoding a bovine parathyroid cell calcium receptor as described in Example 25. After two to three days, Cl^- currents were examined in the oocytes using a two-electrode voltage clamp.
Xenopus oocytes were injected with BoPCaR 1 as described in Example 25. After two to three days, Cl^- currents were examined in the oocytes using two electrode voltage clamp.

[7] = molecular target: T1, parathyroid cell calcium receptor; test: block of extracellular Ca^2+-evoked increases in [Ca^2+]i in bovine parathyroid cells (calcilytic); format: cell-based
bovine parathyroid cells [8] = test: PTH secretion from bovine parathyroid cells; format: cell-based
[9] = molecular target: T4, parathyroid cell calcium receptor (Homo sapiens, UniProt P41180); test: [Ca^2+]i (fura-2) in human parathyroid cells; format: cell-based; conditions: 1 μM
T4 construct: Dissociated parathyroid cells were prepared from a parathyroid adenoma obtained by surgery from a patient with primary hyperparathyroidism; endogenous in cells; host or cells: primary dissociated human parathyroid cells (adenoma or hyperplastic tissue from surgery)
T4 sequence (P41180 20-1078): T2 sequence (P41180 20-1078)

bovine parathyroid cells [10] = format: cell-based
Protocol: This section describes measuring cyclic AMP levels. Cells were incubated as above for PTH secretion studies and at the end of the incubation, a 0.15-ml sample was taken and transferred to 0.85 ml of hot (70° C.) water and heated at this temperature for 5-10 minutes. The tubes were subsequently frozen and thawed several times and the cellular debris sedimented by centrifugation. Portions of the supernatant were acetylated and cyclic AMP concentrations determined by radioimmunoassay.
Bovine parathyroid cells were cultured for 16 hours with or without 100 ng/ml pertussis toxin. […] Each value is the mean±SEM of three experiments.

bovine parathyroid cells [11] = test: inositol phosphate formation in bovine parathyroid cells; format: cell-based
Protocol: This section describes procedures measuring inositol phosphate formation. Membrane phospholipids were labeled by incubating parathyroid cells with 4 μCi/ml ^3 H-myo-inositol for 20-24 hours. Cells were then washed and resuspended in PCB containing 0.5 mM CaCl2 and 0.1% BSA. Incubations were performed in microfuge tubes in the absence or presence of various concentrations of organic polycation for different times. Reactions were terminated by the addition of 1 ml chloroform-methanol-12N HCl (200:100:1; v/v/v). Aqueous phytic acid hydrolysate (200 μl; 25 μg phosphate/tube). The tubes were centrifuged and 600 μl of the aqueous phase was diluted into 10 ml water.
Inositol phosphates were separated by ion-exchange chromatography using AG1-X8 in either the chloride- or formate-form. When only IP3 levels were to be determined, the chloride-form was used, whereas the formate form was used to resolve the major inositol phosphates (IP3, IP2, and IP1). For determination of just IP3, the diluted sample was applied to the chloride-form column and the column was washed with 10 ml 30 mM HCl followed by 6 ml 90 mM HCl and the IP3 was eluted with 3 ml 500 mM HCl. The last eluate was diluted and counted. […] The eluted samples from the formate columns were rotary evaporated, the residues brought up in cocktail, and counted.
The isomeric forms of IP3 were evaluated by HPLC. […]

- EC50 ([1]; Table 6, rat osteoclasts): 250 µM
Molecule: CC(NCCCc1ccccc1)c1ccc(Cl)cc1 (racemic) [Compound 1H]

Molecule: CC(NCCC(c1ccccc1)c1ccccc1)c1ccccc1 (racemic) [Fendiline, reference compound]
- Cl^- current in oocytes [2]: oscillatory increases

Molecule: COc1cccc(C(C)NCCCc2ccccc2)c1 (racemic) [NPS 467]
- reduction in serum or whole blood Ca^2+ [3]: dose-dependent reduction in serum or whole blood Ca^2+
- time to return toward control levels [3]: 24 h
- change in serum albumin or phosphate ([3]; all doses): no change in serum albumin or phosphate levels
- circulating PTH ([3]; preliminary studies): dose-dependent reduction in circulating levels of PTH

- Net (+) Charge (net positive charge): +2
Molecule: NCCCCCCCCCCCCN [DADD, 1,12-diaminododecane]
- [Ca^2+]i ([4]; 100 to 1000 μM, 2 mM CaCl2): prompt fall in [Ca^2+ ]i
- effect on increases in [Ca^2+]i elicited by extracellular Ca^2+ ([4]; pretreatment): depresses steady-state, but not transient increases in [Ca^2+ ]i

Molecule: C1CNCCNCCNCCNCCNCCN1 [Hexacyclen, 1,4,7,10,13,16-hexaaza-cyclooctadecane, reference compound]
- potency relative to NPS 383 ([5]; [Ca^2+]i): 7 -fold
- potency relative to pentaethylenehexamine ([5]; [Ca^2+]i): 25 -fold
- effective concentration for mobilization of intracellular Ca^2+ in oocytes (calcium receptor): 135 µM
- Net (+) Charge (net positive charge): +6

Molecule: NCCCNCCCCNCCCNCCCN(O)CCCNC(=O)Cc1c[nH]c2ccccc12 [NPS 017, reference compound]
- Cl^- current [6]: oscillatory increases in the Cl^- current

Molecule: NCCCCCCCCCCCCNC(=O)Cc1ccc(O)cc1O [NPS 021]
- change in [Ca^2+]i by the compound itself ([7]; 0.5 mM extracellular Ca^2+): does not by itself cause any change in [Ca^2+ ]i
- IC50 ([7]; bovine parathyroid cells): ~200 µM
- IC100 ([7]; read-out: concentration abolishing the increase in [Ca^2+]i evoked by extracellular Ca^2+): ~500 µM

Molecule: NCCCCNCCCN [Spermidine]
- increase in [Ca^2+]i relative to maximal extracellular Ca^2+ ([1]; osteoclasts, 1000 µM): about 10%
- Net (+) Charge (net positive charge): +3

Molecule: NCCCNCCCCNCCCN [Spermine]
- inhibition of PTH secretion (bovine parathyroid cells [8]): inhibited PTH secretion to the same extent as extracellular Ca^2+

- change in [Ca^2+]i at low extracellular Ca^2+ ([5]; 100 μM, 0.5 mM extracellular Ca^2+): evoked no change in [Ca^2+ ]i
- increase in [Ca^2+]i at intermediate extracellular Ca^2+ ([5]; 100 μM, 1-[…] extracellular Ca^2+): small, but robust increase
Molecule: CCN(CC)CCCCCCCCOC(=O)c1cc(OC)c(OC)c(OC)c1 [TMB-8, reference compound]
- potentiation of mobilization of intracellular Ca^2+ elicited by extracellular divalent cations ([5]; 100 μM): potentiated the mobilization; also recorded: potentiated transient increases in [Ca^2+ ]i
- block of influx of extracellular Ca^2+ ([4]; 100 μM): blocked the influx

- effect on sustained increases in [Ca^2+]i elicited by extracellular Mg^2+ [9]: not affected by nimodipine
Molecule: COCCOC(=O)C1=C(C)NC(C)=C(C(=O)OC(C)C)C1c1cccc([N+](=O)[O-])c1 (stereo not drawn) [nimodipine]

Molecule: protamine
- increases in [Ca^2+]i [5]: rapid and transient increases in [Ca^2+ ]i
- cyclic AMP (+PTx) (bovine parathyroid cells [10]): 89 ± 9 % of control
- cyclic AMP (control, without pertussis toxin) (bovine parathyroid cells [10]; 10 μM isoproterenol, 2.0 mM Ca^2+, or 0.5 mM Ca^2+ with 200 μM spermine, 30 μM neomycin B or 2 μg/ml protamine, mean±SEM of three experiments): 20 ± 4 % of control
- inhibition of PTH secretion (bovine parathyroid cells [8]): inhibited PTH secretion to the same extent as extracellular Ca^2+
- formation of IP3 (bovine parathyroid cells [11]): rapid (within 30 seconds) increase
